Measured values taken from patent US9556135B2, “Amino-dihydrothiazine and amino-dioxido dihydrothiazine compounds as beta-secretase antagonists and methods of use” (Amgen Inc., priority 2012, dated 2017).

Test system: Abeta 40
Assay: In vivo inhibition of beta-secretase: Abeta 40 reduction in CSF and brain of the rat
Conditions: 10 mpk (unless otherwise noted), after 4 hrs
Source text: In Vivo Inhibition of Beta-Secretase
Several animal models, including mouse, rat, dog, and monkey, may be used to screen for inhibition of beta-secretase activity in vivo following administration of a test compound sample. Animals used in this invention can be wild type, transgenic, or gene knockout animals. […] One to twenty-four hours following the administration of compound, animals are sacrificed, and brains as well as cerebrospinal fluid (CSF) and plasma are removed for analysis of A-beta levels and drug or test compound concentrations (Dovey et al., 2001, Journal of Neurochemistry, 76, 173-181) Beginning at time 0, animals are administered by oral gavage, or other means of delivery such as intravenous injection, an inhibitory test compound of up to 100 mg/kg in a standard, conventional formulation, such as 2% hydroxypropyl methylcellulose, 1% Tween80. A separate group of animals receive 2% hydroxypropyl methylcellulose, 1% Tween80 alone, containing no test compound, and serve as a vehicle-control group. At the end of the test period, animals are sacrificed and brain tissues, plasma or cerebrospinal fluid are collected. Brains are either homogenized in 10 volumes (w/v) of 0.2% diethylamine (DEA) in 50 mM NaCl (Best et al., 2005, Journal of Pharmacology and Experimental Therapeutics, 313, 902-908), or in 10 volumes of 0.5% TritonX-100 in Tris-buffered saline (pH at about 7.6). Homogenates are centrifuged at 355,000 g, 4° C. for 30 minutes. CSF or brain supernatants are then analyzed for the presence of A-beta peptide by specific sandwich ELISA assays based on ECL (Electrochemiluminescence) technology. For example, rat Abeta40 is measured using biotinylated-4G8 (Signet) as a capture antibody and Fab40 (an in-house antibody specific to the C-terminal of Abeta40) as a detection antibody.
Actual vehicles used: Oral: 2% HPMC, 1% Tween80, pH 2.2

CC1(C)C(N)=N[C@](C)(c2cc(NC(=O)c3ccc(F)cn3)ccc2F)CS1(=O)=O [Example 18, N-(3-((3R)-5-amino-3,6,6-trimethyl-1,1-dioxido-3,6-dihydro-2H-1,4-thiazin-3-yl)-4-fluorophenyl)-5-fluoro-2-pyridinecarboxamide]
% reduction of rat CSF levels at 10 pmk: 73% | % reduction of rat brain levels at 10 mpk: 57%

CC1(C)C(N)=N[C@](C)(c2cc(NC(=O)c3ccc(Cl)cn3)ccc2F)CS1(=O)=O [Example 19, N-(3-((3R)-5-amino-3,6,6-trimethyl-1,1-dioxido-3,6-dihydro-2H-1,4-thiazin-3-yl)-4-fluorophenyl)-5-chloro-2-pyridinecarboxamide]
% reduction of rat CSF levels at 10 pmk: 83% | % reduction of rat brain levels at 10 mpk: 74%

COc1cnc(C(=O)Nc2ccc(F)c([C@]3(C)CS(=O)(=O)[C@@](C)(F)C(N)=N3)c2)cn1 [Example 30, N-(3-((3R,6R)-5-amino-6-fluoro-3,6-dimethyl-1,1-dioxido-3,6-dihydro-2H-1,4-thiazin-3-yl)-4-fluorophenyl)-5-methoxy-2-pyrazinecarboxamide]
% reduction of rat CSF levels at 10 pmk: 56% | % reduction of rat brain levels at 10 mpk: 37%

CC1(C)C(N)=N[C@](C)(c2cc(Nc3nccc4cc(Cl)cnc34)ccc2F)CS1(=O)=O [Example 45, N-(3-((3R)-5-amino-3,6,6-trimethyl-1,1-dioxido-3,6-dihydro-2H-1,4-thiazin-3-yl)-4-fluorophenyl)-3-chloro-1,7-naphthyridin-8-amine]
% reduction of rat CSF levels at 10 pmk: 63% | % reduction of rat brain levels at 10 mpk: 34%

COc1cnc2c(Nc3ccc(F)c([C@]4(C)CS(=O)(=O)C(C)(C)C(N)=N4)c3)nccc2c1 [Example 46, N-(3-((3R)-5-amino-3,6,6-trimethyl-1,1-dioxido-3,6-dihydro-2H-1,4-thiazin-3-yl)-4-fluorophenyl)-3-methoxy-1,7-naphthyridin-8-amine]
% reduction of rat CSF levels at 10 pmk: 76% | % reduction of rat brain levels at 10 mpk: 64%

COc1cnc2c(Nc3ccc(F)c([C@]4(C)CS(=O)(=O)C(C)(C)C(N)=N4)c3)nccc2n1 [Example 47, N-(3-((3R)-5-amino-3,6,6-trimethyl-1,1-dioxido-3,6-dihydro-2H-1,4-thiazin-3-yl)-4-fluorophenyl)-2-methoxypyrido[3,4-b]pyrazin-5-amine]
% reduction of rat CSF levels at 10 pmk: 82% | % reduction of rat brain levels at 10 mpk: 66%

CC1(C)C(N)=N[C@](C)(c2cc(Nc3nccc4cc(C#N)cnc34)ccc2F)CS1(=O)=O [Example 48, 8-((3-((3R)-5-amino-3,6,6-trimethyl-1,1-dioxido-3,6-dihydro-2H-1,4-thiazin-3-yl)-4-fluorophenyl)amino)-1,7-naphthyridine-3-carbonitrile]
% reduction of rat CSF levels at 10 pmk: 79% | % reduction of rat brain levels at 10 mpk: 59%

CC1(C)C(N)=N[C@](C)(c2cc(Nc3ncc(F)c4cc(C#N)cnc34)ccc2F)CS1(=O)=O [Example 76, (R)-8-((3-(5-Amino-3,6,6-trimethyl-1,1-dioxido-3,6-dihydro-2H-1,4-thiazin-3-yl)-4-fluorophenyl)amino)-5-fluoro-1,7-naphthyridine-3-carbonitrile]
% reduction of rat CSF levels at 10 pmk: 60% | % reduction of rat brain levels at 10 mpk: 46%

C[C@@]1(c2cc(NC(=O)c3ccc(Cl)cn3)ccc2F)CS(=O)(=O)C2(CC(F)(F)C2)C(N)=N1 [Example 120, (R)—N-(3-(9-amino-2,2-difluoro-7-methyl-5,5-dioxido-5-thia-8-azaspiro[3.5]non-8-en-7-yl)-4-fluorophenyl)-5-chloropicolinamide]
% reduction of rat CSF levels at 10 pmk: 39% | % reduction of rat brain levels at 10 mpk: 18%

C[C@]1(c2cc(NC(=O)c3ccc(Cl)cn3)ccc2F)N=C(N)C2(CCC2)S(=O)(=O)[C@@H]1F [Example 131, N-(3-((6S,7R)-9-amino-6-fluoro-7-methyl-5,5-dioxido-5-thia-8-azaspiro[3.5]non-8-en-7-yl)-4-fluorophenyl)-5-chloropicolinamide]
% reduction of rat CSF levels at 10 pmk: 10% | % reduction of rat brain levels at 10 mpk: −18%

Cc1cc(OC(F)F)cnc1C(=O)Nc1ccc(F)c([C@@]2(C)N=C(N)C3(CCC3)S(=O)(=O)[C@@H]2F)c1 [Example 132, N-(3-((6S,7R)-9-amino-6-fluoro-7-methyl-5,5-dioxido-5-thia-8-azaspiro[3.5]non-8-en-7-yl)-4-fluorophenyl)-5-(difluoromethoxy)-3-methylpicolinamide]
% reduction of rat CSF levels at 10 pmk: 31% | % reduction of rat brain levels at 10 mpk: 10%

Cc1cc(OC(F)F)cnc1C(=O)Nc1ccc(F)c([C@]2(C)CS(=O)(=O)C(C)(C)C(N)=N2)c1 [Example 144, (R)—N-(3-(5-amino-3,6,6-trimethyl-1,1-dioxido-3,6-dihydro-2H-1,4-thiazin-3-yl)-4-fluorophenyl)-5-(difluoromethoxy)-3-methylpicolinamide]
% reduction of rat CSF levels at 10 pmk: 79% | % reduction of rat brain levels at 10 mpk: 72%

Cc1cc(OC(F)F)cnc1C(=O)Nc1ccc(F)c([C@]2(CF)CS(=O)(=O)C(C)(C)C(N)=N2)c1 [Example 148, (S)—N-(3-(5-amino-3-(fluoromethyl)-6,6-dimethyl-1,1-dioxido-3,6-dihydro-2H-1,4-thiazin-3-yl)-4-fluorophenyl)-5-(difluoromethoxy)-3-methylpicolinamide]
% reduction of rat CSF levels at 10 pmk: 68% | % reduction of rat brain levels at 10 mpk: 57%

Cc1c(C(=O)Nc2ccc(F)c([C@]3(CF)CS(=O)(=O)C(C)(C)C(N)=N3)c2)nc2ccc(Cl)cn12 [Example 158, (S)—N-(3-(5-amino-3-(fluoromethyl)-6,6-dimethyl-1,1-dioxido-3,6-dihydro-2H-1,4-thiazin-3-yl)-4-fluorophenyl)-6-chloro-3-methylimidazo[1,2-a]pyridine-2-carboxamide]
% reduction of rat CSF levels at 10 pmk: 11% | % reduction of rat brain levels at 10 mpk: −5%

COc1cnc2c(Nc3ccc(F)c([C@]4(CF)CS(=O)(=O)C(C)(C)C(N)=N4)c3)ncc(F)c2c1 [Example 159, (S)-5-amino-3-(2-fluoro-5-((5-fluoro-3-methoxy-1,7-naphthyridin-8-yl)amino)phenyl)-3-(fluoromethyl)-6,6-dimethyl-3,6-dihydro-2H-1,4-thiazine 1,1-dioxide]
% reduction of rat CSF levels at 10 pmk: 45% | % reduction of rat brain levels at 10 mpk: 31%

Cc1cc(OC(F)F)cnc1C(=O)Nc1cc([C@]2(C)CS(=O)(=O)C(C)(C)C(N)=N2)c(=O)n(C)c1 [Example 171, (R)—N-(5-(5-amino-3,6,6-trimethyl-1,1-dioxido-3,6-dihydro-2H-1,4-thiazin-3-yl)-1-methyl-6-oxo-1,6-dihydropyridin-3-yl)-5-(difluoromethoxy)-3-methylpicolinamide]
% reduction of rat CSF levels at 10 pmk: 1% | % reduction of rat brain levels at 10 mpk: 3%

COc1cnc2c(Nc3ccc(F)c([C@]4(C)CS(=O)(=O)[C@@](C)(F)C(N)=N4)c3)ncnc2c1 [Example 177, (3R,6R)-5-Amino-6-fluoro-3-(2-fluoro-5-((7-methoxypyrido[3,2-d]pyrimidin-4-yl)amino)phenyl)-3,6-dimethyl-3,6-dihydro-2H-1,4-thiazine 1,1-dioxide]
% reduction of rat CSF levels at 10 pmk: 37% | % reduction of rat brain levels at 10 mpk: 24%
